Results reported in patent US10544130B2, “Metallo-beta-lactamase inhibitors” (priority 2015, dated 2020).

test system: Pseudomonas aeruginosa PAO1 MB9798 (efflux+, IMP-1); conditions: ratio MITC95 PA 9798/MITC95 PA 9799; imipenem at 2 μg/mL
Text: The strain background was Pseudomonas aeruginosa PAO1.
The strain set was then used as a pair to determine the effect of metallo-β-lactamase inhibitors of Formula I on the MIC of imipenem and/or ceftazidime. A fixed concentration of antibiotic was included in standard microbroth MIC tests, usually at the CLSI (Clinical and Laboratory Standards Institute) breakpoint concentration. A fixed amount of a class A/C beta-lactamase inhibitor was also included to inhibit the resident Pseudomonas AmpC enzyme. A serial titration of the metallo-β-lactamase inhibitor was included and the concentration of metallo-β-lactamase inhibitor which restores susceptibility of the strain to the included antibiotic was recorded. That concentration of metallo-β-lactamase inhibitor was then compared between the two strains to determine the fold difference between the efflux + (MB9798) and efflux − (MB9799) strains. This was taken as an indication of the extent to which the MBLi is subject to efflux.

First: Nc1nc2c(-c3ccc(S(=O)(=O)NCCC(N)C(F)(F)F)c(S(N)(=O)=O)c3-c3nnn[nH]3)cccc2s1 (stereo not shown) [Example 49, 4-(2-amino-1,3-benzothiazol-4-yl)-N1-(3-amino-4,4,4-trifluorobutyl)-3-(1H-tetrazol-5-yl)benzene-1,2-disulfonamide]
Second: NCCCNS(=O)(=O)c1ccc(-c2cccc3sc(N)nc23)c(-c2nnn[nH]2)c1S(N)(=O)=O.O=C(O)C(F)(F)F [Example 90, 3-(4-(2-aminobenzo[d]thiazol-4-yl)-2-sulfamoyl-3-(1H-tetrazol-5-yl)phenylsulfonamido) propan-1-aminium 2,2,2-trifluoroacetate]
The Efflux ratio of the first is higher: 8.00 for the first, 0.50 for the second.

Nc1ccc(-c2ccc(S(=O)(=O)NC[C@H]3CNCCN3)c(S(N)(=O)=O)c2-c2nn[nH]n2)cn1 [Example 315, (R)-4-(6-aminopyridin-3-yl)-N1-(piperazin-2-ylmethyl)-3-(1H-tetrazol-5-yl)benzene-1,2-disulfonamide] and Nc1ccc(-c2ccc(S(=O)(=O)NC[C@@H]3CNCCN3)c(S(N)(=O)=O)c2-c2nn[nH]n2)cn1 [Example 312, (S)-4-(6-aminopyridin-3-yl)-N1-(piperazin-2-ylmethyl)-3-(2H-tetrazol-5-yl)benzene-1,2-disulfonamide] are the same in Efflux ratio: 1.00 for the first, 1.00 for the second.

First: CC(CN1CCOCC1)NS(=O)(=O)c1ccc(-c2cccc3sc(N)nc23)c(-c2nnn[nH]2)c1S(N)(=O)=O (stereo not shown) [Example 51, 4-(2-amino-1,3-benzothiazol-4-yl)-N1-(1-methyl-2-morpholin-4-ylethyl)-3-(1H-tetrazol-5-yl)benzene-1,2-disulfonamide]
Second: CN(C)C1CCN(S(=O)(=O)c2ccc(-c3cccc4sc(N)nc34)c(-c3nnn[nH]3)c2S(N)(=O)=O)CC1 [Example 26, 3-(2-amino-1,3-benzothiazol-4-yl)-6-{[4-(dimethylamino)piperidin-1-yl]sulfonyl}-2-(1H-tetrazol-5-yl)benzenesulfonamide]
The Efflux ratio of the first is higher: 4.00 for the first, 2.00 for the second.

Compared with NCCNS(=O)(=O)c1ccc(-c2ccc(N)nc2)c(-c2nn[nH]n2)c1S(N)(=O)=O [Example 196, N^1-(2-aminoethyl)-4-(6-aminopyridin-3-yl)-3-(2H-tetrazol-5-yl)benzene-1,2-disulfonamide], NCCNS(=O)(=O)c1ccc(-c2cccc3[nH]c(N)nc23)c(-c2nn[nH]n2)c1S(N)(=O)=O [Example 12, 4-(2-amino-1H-benzo[d]imidazol-4-yl)-N^1-(2-aminoethyl)-3-(2H-tetrazol-5-yl)benzene-1,2-disulfonamide] is lower in Efflux ratio: 1.00 for the first, 0.75 for the second.

First: NS(=O)(=O)c1c(S(=O)(=O)N[C@@H]2CCNC2)ccc(-c2ccc3nonc3c2)c1-c1nnn[nH]1 [Example 133, (R)-4-(benzo[c][1,2,5]oxadiazol-5-yl)-N1-(pyrrolidin-3-yl)-3-(1H-tetrazol-5-yl)benzene-1,2-disulfonamide]
Second: N#Cc1cccc(-c2ccc(S(=O)(=O)N[C@@H]3CCNC3)c(S(N)(=O)=O)c2-c2nnn[nH]2)c1N [Example 132, (R)-2′-amino-3′-cyano-N4-(pyrrolidin-3-yl)-2-(1H-tetrazol-5-yl)-[1,1′-biphenyl]-3,4-disulfonamide]
The Efflux ratio of the first is higher: 8.00 for the first, 4.00 for the second.

Compared with Nc1nc2c(-c3ccc(S(=O)(=O)NCC4(F)CNC4)c(S(N)(=O)=O)c3-c3nnn[nH]3)cccc2s1.O=CO [Example 91, 3-(((4-(2-aminobenzo[d]thiazol-4-yl)-2-sulfamoyl-3-(1H-tetrazol-5-yl)phenyl)sulfonamido)methyl)-3-fluoroazetidin-1-ium formate], CN(C[C@@H]1CCCN1)S(=O)(=O)c1ccc(-c2cccc3sc(N)nc23)c(-c2nnn[nH]2)c1S(N)(=O)=O.O=CO [Example 121, (S)-2-((4-(2-aminobenzo[d]thiazol-4-yl)-N-methyl-2-sulfamoyl-3-(1H-tetrazol-5-yl)phenylsulfonamido)methyl)pyrrolidin-1-ium formate] is higher in Efflux ratio: 1.00 for the first, 4.00 for the second.

Nc1nc2c(-c3ccc(S(N)(=O)=O)c(S(N)(=O)=O)c3-c3nn[nH]n3)cccc2o1 [Example 4, 4-(2-aminobenzo[d]oxazol-4-yl)-3-(2H-tetrazol-5-yl)benzene-1,2-disulfonamide] and Cl.Cn1c(N)nc2c(-c3ccc(S(=O)(=O)NCCN)c(S(N)(=O)=O)c3-c3nn[nH]n3)cccc21 [Example 10, 4-(2-amino-1-methyl-1H-benzo[d]imidazol-4-yl)-N1-(2-aminoethyl)-3-(2H-tetrazol-5-yl)benzene-1,2-disulfonamide hydrochloride] are the same in Efflux ratio: 1.00 for the first, 1.00 for the second.

Compared with Nc1nc2c(-c3ccc(S(=O)(=O)N[C@@]4(CO)CCNC4)c(S(N)(=O)=O)c3-c3nnn[nH]3)cccc2[nH]1 [Example 176, (S)-4-(2-amino-1H-benzo[d]imidazol-4-yl)-N1-(3-(hydroxymethyl)pyrrolidin-3-yl)-3-(1H-tetrazol-5-yl)benzene-1,2-disulfonamide], NC[C@@H](O)CNS(=O)(=O)c1ccc(-c2cccc3[nH]c(N)nc23)c(-c2nn[nH]n2)c1S(N)(=O)=O [Example 298, (R)-4-(2-amino-1H-benzo[d]imidazol-4-yl)-N1-(3-amino-2-hydroxypropyl)-3-(2H-tetrazol-5-yl)-benzene-1,2-disulfonamide] is lower in Efflux ratio: 1.00 for the first, 0.69 for the second.

NC[C@H](O)CNS(=O)(=O)c1ccc(-c2cccc3[nH]cnc23)c(-c2nn[nH]n2)c1S(N)(=O)=O [Example 307, (S)-4-(1H-benzo[d]imidazol-4-yl)-N1-(3-amino-2-hydroxypropyl)-3-(2H-tetrazol-5-yl)-benzene-1,2-disulfonamide] and NC[C@@H](O)CNS(=O)(=O)c1ccc(-c2cccc3[nH]cnc23)c(-c2nn[nH]n2)c1S(N)(=O)=O [Example 301, (R)-4-(1H-benzo[d]imidazol-4-yl)-N1-(3-amino-2-hydroxypropyl)-3-(2H-tetrazol-5-yl)-benzene-1,2-disulfonamide] are the same in Efflux ratio: 1.00 for the first, 1.00 for the second.

NCCNS(=O)(=O)c1ccc(-c2cccc(C(=O)NC[C@@H](N)CO)c2N)c(-c2nn[nH]n2)c1S(N)(=O)=O [Example 332, (R)-2-amino-N-(2-amino-3-hydroxypropyl)-4′-(N-(2-aminoethyl)sulfamoyl)-3′-sulfamoyl-2′-(2H-tetrazol-5-yl)-[1,1′-biphenyl]-3-carboxamide] and Cn1c(N)nc2c(-c3ccc(S(=O)(=O)NCCCN)c(S(N)(=O)=O)c3-c3nn[nH]n3)cccc21 [Example 183, 4-(2-amino-1-methyl-1H-benzo[d]imidazol-4-yl)-N^1-(3-aminopropyl)-3-(2H-tetrazol-5-yl)benzene-1,2-disulfonamide] are the same in Efflux ratio: 1.00 for the first, 1.00 for the second.

First: NC[C@@H]1CCN(S(=O)(=O)c2ccc(-c3cccc4sc(N)nc34)c(-c3nnn[nH]3)c2S(N)(=O)=O)C1 [Example 70, 3-(2-amino-1,3-benzothiazol-4-yl)-6-{[(3S)-3-(aminomethyl)pyrrolidin-1-yl]sulfonyl}-2-(1H-tetrazol-5-yl)benzenesulfonamide]
Second: Nc1ncccc1-c1ccc(S(=O)(=O)NC[C@H]2CNCCN2)c(S(N)(=O)=O)c1-c1nn[nH]n1 [Example 316, (R)-4-(2-aminopyridin-3-yl)-N1-(piperazin-2-ylmethyl)-3-(1H-tetrazol-5-yl)benzene-1,2-disulfonamide]
The Efflux ratio of the first is lower: 1.00 for the first, 2.00 for the second.
